Data as given in publication PMC9841288 (Journal of Translational Autoimmunity, 2022).

Legend:
CLK2 = CLK2 (Homo sapiens, UniProt P49760); test: KINOMEscan competition binding, single dose […]
DYRK1B = DYRK1B (Homo sapiens, UniProt Q9Y463); test: KINOMEscan competition binding, single dose […]
MYLK = MYLK (Homo sapiens, UniProt Q15746); test: KINOMEscan competition binding, single dose […]
ALK(C1156Y) = ALK(C1156Y) (Homo sapiens, UniProt Q9UM73, C1156Y); test: KINOMEscan competition binding, single dose […]
CLK1 = CLK1 (Homo sapiens, UniProt P49759); test: KINOMEscan competition binding, single dose […]
DYRK1A = DYRK1A (Homo sapiens, UniProt Q13627); test: radiometric HotSpot kinase assay, […] ATP; assay type: biochemical
ALK = ALK (Homo sapiens, UniProt Q9UM73); test: KINOMEscan competition binding, single dose […]
ALK, sequence (Q9UM73 19-1620): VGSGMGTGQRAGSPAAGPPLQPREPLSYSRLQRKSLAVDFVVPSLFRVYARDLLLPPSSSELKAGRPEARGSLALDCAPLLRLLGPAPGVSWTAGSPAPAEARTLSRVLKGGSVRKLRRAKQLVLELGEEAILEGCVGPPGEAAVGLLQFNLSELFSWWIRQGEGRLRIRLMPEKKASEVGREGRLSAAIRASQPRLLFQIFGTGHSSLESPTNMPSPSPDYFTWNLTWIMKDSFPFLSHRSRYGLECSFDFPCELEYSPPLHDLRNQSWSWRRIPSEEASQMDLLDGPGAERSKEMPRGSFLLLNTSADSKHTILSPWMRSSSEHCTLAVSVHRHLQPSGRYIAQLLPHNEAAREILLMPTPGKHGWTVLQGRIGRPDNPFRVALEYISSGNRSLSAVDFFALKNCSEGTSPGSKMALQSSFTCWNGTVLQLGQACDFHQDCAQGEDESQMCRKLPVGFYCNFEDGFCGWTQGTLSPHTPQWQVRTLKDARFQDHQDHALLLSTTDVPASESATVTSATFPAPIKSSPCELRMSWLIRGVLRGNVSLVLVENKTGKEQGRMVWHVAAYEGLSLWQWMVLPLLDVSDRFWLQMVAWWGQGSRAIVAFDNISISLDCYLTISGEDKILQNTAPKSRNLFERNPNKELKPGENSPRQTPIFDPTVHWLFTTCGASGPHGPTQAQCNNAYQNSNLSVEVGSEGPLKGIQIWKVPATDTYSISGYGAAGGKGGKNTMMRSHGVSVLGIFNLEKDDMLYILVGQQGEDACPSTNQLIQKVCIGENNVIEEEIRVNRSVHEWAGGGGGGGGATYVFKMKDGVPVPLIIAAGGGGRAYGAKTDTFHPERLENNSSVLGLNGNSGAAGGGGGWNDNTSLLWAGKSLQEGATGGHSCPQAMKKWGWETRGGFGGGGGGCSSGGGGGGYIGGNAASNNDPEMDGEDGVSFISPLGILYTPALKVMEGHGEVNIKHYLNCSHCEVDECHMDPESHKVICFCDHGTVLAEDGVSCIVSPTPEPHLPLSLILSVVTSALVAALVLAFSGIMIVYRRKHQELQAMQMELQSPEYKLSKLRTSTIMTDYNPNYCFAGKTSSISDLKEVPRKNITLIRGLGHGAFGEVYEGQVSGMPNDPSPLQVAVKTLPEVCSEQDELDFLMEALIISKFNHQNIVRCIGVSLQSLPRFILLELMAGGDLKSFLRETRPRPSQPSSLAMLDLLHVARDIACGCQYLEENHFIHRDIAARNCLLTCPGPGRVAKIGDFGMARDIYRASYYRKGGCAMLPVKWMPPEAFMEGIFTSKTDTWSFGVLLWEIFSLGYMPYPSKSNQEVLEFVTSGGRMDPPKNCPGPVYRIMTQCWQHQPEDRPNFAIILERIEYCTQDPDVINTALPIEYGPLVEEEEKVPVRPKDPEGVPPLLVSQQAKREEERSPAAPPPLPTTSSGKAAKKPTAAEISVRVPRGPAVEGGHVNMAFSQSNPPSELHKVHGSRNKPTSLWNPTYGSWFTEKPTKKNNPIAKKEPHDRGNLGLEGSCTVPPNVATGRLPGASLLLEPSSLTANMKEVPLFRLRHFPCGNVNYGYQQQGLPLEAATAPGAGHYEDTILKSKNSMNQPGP

CLK2, sequence (P49760 whole entry): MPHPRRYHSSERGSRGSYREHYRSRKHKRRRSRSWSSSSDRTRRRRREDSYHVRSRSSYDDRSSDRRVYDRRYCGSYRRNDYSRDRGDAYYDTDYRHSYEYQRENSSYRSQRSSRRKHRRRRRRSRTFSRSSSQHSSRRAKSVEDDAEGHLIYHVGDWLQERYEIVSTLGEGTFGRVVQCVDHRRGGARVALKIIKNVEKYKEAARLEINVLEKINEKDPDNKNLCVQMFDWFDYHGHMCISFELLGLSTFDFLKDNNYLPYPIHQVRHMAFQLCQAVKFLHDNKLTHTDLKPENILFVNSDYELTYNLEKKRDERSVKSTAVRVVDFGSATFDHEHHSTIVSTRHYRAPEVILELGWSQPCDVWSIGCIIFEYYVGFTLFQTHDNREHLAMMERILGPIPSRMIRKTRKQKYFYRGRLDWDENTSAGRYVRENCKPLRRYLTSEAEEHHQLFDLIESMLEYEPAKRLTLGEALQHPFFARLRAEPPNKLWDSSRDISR
CLK1, sequence (P49759 whole entry): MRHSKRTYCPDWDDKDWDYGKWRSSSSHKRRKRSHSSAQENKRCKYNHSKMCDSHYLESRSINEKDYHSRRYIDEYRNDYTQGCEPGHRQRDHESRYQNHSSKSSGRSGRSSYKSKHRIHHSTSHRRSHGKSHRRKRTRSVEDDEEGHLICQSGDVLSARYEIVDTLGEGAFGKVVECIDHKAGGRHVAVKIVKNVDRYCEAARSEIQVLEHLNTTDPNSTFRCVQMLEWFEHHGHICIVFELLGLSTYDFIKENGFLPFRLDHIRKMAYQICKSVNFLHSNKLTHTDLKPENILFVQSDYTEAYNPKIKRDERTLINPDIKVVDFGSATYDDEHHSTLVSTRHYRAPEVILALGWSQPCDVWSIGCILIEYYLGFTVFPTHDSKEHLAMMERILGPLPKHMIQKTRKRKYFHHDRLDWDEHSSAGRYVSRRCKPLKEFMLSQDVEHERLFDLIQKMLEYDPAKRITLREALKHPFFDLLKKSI
MYLK, sequence (Q15746 whole entry): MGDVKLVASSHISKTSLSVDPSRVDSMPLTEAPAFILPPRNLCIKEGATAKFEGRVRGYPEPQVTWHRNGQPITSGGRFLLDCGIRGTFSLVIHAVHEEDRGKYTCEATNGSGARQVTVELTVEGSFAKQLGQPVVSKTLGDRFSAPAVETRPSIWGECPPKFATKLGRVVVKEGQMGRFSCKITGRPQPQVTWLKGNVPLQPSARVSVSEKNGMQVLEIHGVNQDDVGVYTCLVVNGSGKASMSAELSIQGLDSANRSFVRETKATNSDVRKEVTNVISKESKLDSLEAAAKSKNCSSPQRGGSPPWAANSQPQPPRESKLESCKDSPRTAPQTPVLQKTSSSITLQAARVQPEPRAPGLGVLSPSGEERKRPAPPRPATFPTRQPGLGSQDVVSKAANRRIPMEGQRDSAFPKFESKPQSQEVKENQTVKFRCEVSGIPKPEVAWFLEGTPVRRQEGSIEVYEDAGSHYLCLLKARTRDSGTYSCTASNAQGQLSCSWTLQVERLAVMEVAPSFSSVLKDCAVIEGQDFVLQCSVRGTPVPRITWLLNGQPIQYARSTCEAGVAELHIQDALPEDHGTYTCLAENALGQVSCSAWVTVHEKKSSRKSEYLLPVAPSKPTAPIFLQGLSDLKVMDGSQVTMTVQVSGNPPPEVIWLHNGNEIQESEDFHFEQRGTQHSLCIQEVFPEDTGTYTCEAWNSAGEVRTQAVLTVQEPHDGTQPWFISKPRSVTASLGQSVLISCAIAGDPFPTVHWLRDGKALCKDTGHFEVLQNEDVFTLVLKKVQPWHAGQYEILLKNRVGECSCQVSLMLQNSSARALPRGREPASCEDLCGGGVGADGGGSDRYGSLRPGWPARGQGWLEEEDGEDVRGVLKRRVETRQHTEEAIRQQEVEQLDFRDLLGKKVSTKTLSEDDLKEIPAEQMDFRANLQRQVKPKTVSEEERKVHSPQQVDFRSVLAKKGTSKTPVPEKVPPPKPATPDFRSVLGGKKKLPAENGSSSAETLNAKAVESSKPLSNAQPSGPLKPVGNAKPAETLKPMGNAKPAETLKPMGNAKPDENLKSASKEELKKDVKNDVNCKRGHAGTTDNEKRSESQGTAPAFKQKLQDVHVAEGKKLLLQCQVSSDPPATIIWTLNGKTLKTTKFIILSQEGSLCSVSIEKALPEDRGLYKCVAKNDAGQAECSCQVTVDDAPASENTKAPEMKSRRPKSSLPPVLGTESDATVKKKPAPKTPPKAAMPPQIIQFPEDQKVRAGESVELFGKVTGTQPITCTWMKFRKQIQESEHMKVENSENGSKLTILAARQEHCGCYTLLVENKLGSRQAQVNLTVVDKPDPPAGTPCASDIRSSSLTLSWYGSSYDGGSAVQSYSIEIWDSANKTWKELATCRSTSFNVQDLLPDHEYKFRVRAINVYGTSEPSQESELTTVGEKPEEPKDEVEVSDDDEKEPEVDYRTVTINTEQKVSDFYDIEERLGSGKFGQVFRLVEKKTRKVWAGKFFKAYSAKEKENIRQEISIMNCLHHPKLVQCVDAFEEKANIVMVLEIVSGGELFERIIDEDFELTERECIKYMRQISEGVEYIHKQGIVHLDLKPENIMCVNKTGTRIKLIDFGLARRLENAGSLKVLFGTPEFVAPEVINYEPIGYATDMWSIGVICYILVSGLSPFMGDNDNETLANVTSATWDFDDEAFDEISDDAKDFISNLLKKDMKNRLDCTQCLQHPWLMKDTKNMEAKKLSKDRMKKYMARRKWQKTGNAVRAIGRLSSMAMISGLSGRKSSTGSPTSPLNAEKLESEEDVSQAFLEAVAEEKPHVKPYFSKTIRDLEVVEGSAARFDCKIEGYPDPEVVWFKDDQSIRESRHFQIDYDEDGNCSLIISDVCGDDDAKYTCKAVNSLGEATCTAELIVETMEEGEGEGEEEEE
ALK(C1156Y), sequence (Q9UM73 1093-1411 C1156Y limits assumed): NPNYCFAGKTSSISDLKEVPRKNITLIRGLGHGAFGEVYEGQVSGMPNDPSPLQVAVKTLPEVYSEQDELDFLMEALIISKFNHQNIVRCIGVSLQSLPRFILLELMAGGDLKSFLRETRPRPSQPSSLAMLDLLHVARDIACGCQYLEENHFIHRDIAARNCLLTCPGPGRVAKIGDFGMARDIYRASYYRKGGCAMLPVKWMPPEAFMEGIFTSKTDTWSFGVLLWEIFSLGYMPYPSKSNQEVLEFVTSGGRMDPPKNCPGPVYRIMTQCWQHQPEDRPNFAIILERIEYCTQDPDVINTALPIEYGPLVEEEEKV

FRTX-02
% of control unbound at 1 μM (CLK2): 3.3
% of control unbound at 1 μM (DYRK1B): 1.8
% of control unbound at 1 μM (MYLK): 7.8
% of control unbound at 1 μM (ALK(C1156Y)): 2.5
% of control unbound at 1 μM (CLK1): 1.1
IC50 (DYRK1A): 2.9 nM
% of control unbound at 1 μM (ALK): 3.5
